Results published in PubChem BioAssay (NCI).
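The concentration for 50% growth inhibition is given as GI50. TGI: total growth inhibition.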

Tests used:
Assay in all cases: DTP human tumour cell line panel, 384-well format
A549 NSCLC = test system: A549 NSCLC
HOP-62 NSCLC = test system: HOP-62 NSCLC
RXF 393 renal = test system: RXF 393 renal
COLO 205 colon = test system: COLO 205 colon
NCI-H226 lung = test system: NCI-H226 lung
SK-MEL-2 melanoma = test system: SK-MEL-2 melanoma
MCF7 breast = test system: MCF7 breast
NCI-H522 lung = test system: NCI-H522 lung
HL-60(TB) leukemia = test system: HL-60(TB) leukemia
ACHN renal = test system: ACHN renal
HOP-92 NSCLC = test system: HOP-92 NSCLC
SN12C renal = test system: SN12C renal
SR leukemia = test system: SR leukemia
UO-31 renal = test system: UO-31 renal
OVCAR-4 ovarian = test system: OVCAR-4 ovarian
HCT-116 colon = test system: HCT-116 colon
UACC-62 melanoma = test system: UACC-62 melanoma
OVCAR-8 ovarian = test system: OVCAR-8 ovarian
TK-10 renal = test system: TK-10 renal
MDA-MB-435 melanoma = test system: MDA-MB-435 melanoma
CCRF-CEM leukemia = test system: CCRF-CEM leukemia
MDA-MB-468 breast = test system: MDA-MB-468 breast
786-0 renal = test system: 786-0 renal
A498 renal = test system: A498 renal
SK-MEL-5 melanoma = test system: SK-MEL-5 melanoma
MOLT-4 leukemia = test system: MOLT-4 leukemia
M14 melanoma = test system: M14 melanoma
PC-3 prostate = test system: PC-3 prostate
RPMI-8226 leukemia = test system: RPMI-8226 leukemia
K-562 leukemia = test system: K-562 leukemia
HCT-15 colon = test system: HCT-15 colon
NCI/ADR-RES ovarian = test system: NCI/ADR-RES ovarian
CAKI-1 renal = test system: CAKI-1 renal
T-47D breast = test system: T-47D breast
SK-MEL-28 melanoma = test system: SK-MEL-28 melanoma
SF-268 CNS = test system: SF-268 CNS
UACC-257 melanoma = test system: UACC-257 melanoma
SF-295 CNS = test system: SF-295 CNS
HCC-2998 colon = test system: HCC-2998 colon
HS 578T breast = test system: HS 578T breast
SNB-75 CNS = test system: SNB-75 CNS
DU-145 prostate = test system: DU-145 prostate
BT-549 breast = test system: BT-549 breast
HT29 colon = test system: HT29 colon
U251 glioblastoma = test system: U251 glioblastoma
KM12 colon = test system: KM12 colon
MALME-3M melanoma = test system: MALME-3M melanoma
SK-OV-3 ovarian = test system: SK-OV-3 ovarian
OVCAR-3 ovarian = test system: OVCAR-3 ovarian
NCI-H23 lung = test system: NCI-H23 lung
EKVX NSCLC = test system: EKVX NSCLC
SNB-19 CNS = test system: SNB-19 CNS
MDA-MB-231 breast = test system: MDA-MB-231 breast
SW-620 colon = test system: SW-620 colon
LOX IMVI melanoma = test system: LOX IMVI melanoma
IGROV1 ovarian = test system: IGROV1 ovarian
NCI-H460 NSCLC = test system: NCI-H460 NSCLC
NCI-H322M lung = test system: NCI-H322M lung
SF-539 CNS = test system: SF-539 CNS

## Cc1sc(C(=O)c2cncnc2N[C@@H]2C[C@H](COS(N)(=O)=O)[C@@H](O)C2)cc1[C@@H]1NCCc2ccc(Cl)cc21
A549 NSCLC
  GI50: 0.0744 µM
  TGI: 17.2 µM
HOP-62 NSCLC
  GI50: 0.321 µM
  TGI: 19.3 µM
RXF 393 renal
  GI50: 0.0104 µM
  TGI: 0.0578 µM
COLO 205 colon
  GI50: 0.0132 µM
  TGI: 0.0756 µM
NCI-H226 lung
  GI50: 0.16 µM
  TGI: 16.3 µM
SK-MEL-2 melanoma
  GI50: < 0.01 µM
  TGI: 0.0123 µM
MCF7 breast
  GI50: < 0.01 µM
  TGI: 15.3 µM
NCI-H522 lung
  GI50: < 0.01 µM
  TGI: 0.0151 µM
HL-60(TB) leukemia
  GI50: 0.0111 µM
  TGI: 0.0233 µM
ACHN renal
  GI50: 12.5 µM
  TGI: 25.3 µM
HOP-92 NSCLC
  GI50: 0.0188 µM
  TGI: 10.1 µM
SN12C renal
  GI50: 0.133 µM
  TGI: 21.4 µM
SR leukemia
  GI50: < 0.01 µM
UO-31 renal
  GI50: 10.6 µM
  TGI: 22.6 µM
OVCAR-4 ovarian
  GI50: 0.029 µM
  TGI: 0.081 µM
HCT-116 colon
  GI50: 0.0282 µM
  TGI: 17.4 µM
UACC-62 melanoma
  GI50: 0.0198 µM
  TGI: 17.7 µM
OVCAR-8 ovarian
  GI50: 0.186 µM
  TGI: 17.5 µM
TK-10 renal
  GI50: 14.5 µM
  TGI: 27.7 µM
MDA-MB-435 melanoma
  GI50: < 0.01 µM
  TGI: 0.0183 µM
CCRF-CEM leukemia
  GI50: < 0.01 µM
  TGI: 0.0148 µM
MDA-MB-468 breast
  GI50: < 0.01 µM
  TGI: 0.0172 µM
786-0 renal
  GI50: 0.453 µM
  TGI: 20.5 µM
A498 renal
  GI50: 0.561 µM
  TGI: 18.7 µM
SK-MEL-5 melanoma
  GI50: 0.0565 µM
  TGI: 0.239 µM
MOLT-4 leukemia
  GI50: < 0.01 µM
  TGI: 0.0186 µM
M14 melanoma
  GI50: 0.0322 µM
  TGI: 0.214 µM
PC-3 prostate
  GI50: 0.0352 µM
  TGI: 19.2 µM
RPMI-8226 leukemia
  GI50: < 0.01 µM
K-562 leukemia
  GI50: 0.0548 µM
  TGI: 13.1 µM
HCT-15 colon
  GI50: 2.5 µM
  TGI: 14.2 µM
NCI/ADR-RES ovarian
  GI50: 32.7 µM
  TGI: > 100 µM

## C[C@@H](Nc1cc(F)cc(F)c1)c1cc(C(=O)N(C)C)cc2c(=O)cc(N3CCOCC3)oc12
CAKI-1 renal
  GI50: 0.25 µM
  TGI: > 100 µM
T-47D breast
  GI50: 0.591 µM
  TGI: 9.05 µM
A549 NSCLC
  GI50: 7.85 µM
  TGI: > 100 µM
SK-MEL-28 melanoma
  GI50: 1.39 µM
  TGI: > 100 µM
HOP-62 NSCLC
  GI50: 28.8 µM
  TGI: > 100 µM
SF-268 CNS
  GI50: 13.1 µM
  TGI: > 100 µM
RXF 393 renal
  GI50: 0.182 µM
  TGI: 8.24 µM
COLO 205 colon
  GI50: 13.4 µM
  TGI: > 100 µM
NCI-H226 lung
  GI50: 67.6 µM
  TGI: > 100 µM
MCF7 breast
  GI50: 0.666 µM
  TGI: > 100 µM
UACC-257 melanoma
  GI50: 17.2 µM
  TGI: > 100 µM
SF-295 CNS
  GI50: 0.611 µM
  TGI: 16 µM
HCC-2998 colon
  GI50: 5.66 µM
  TGI: 55.6 µM
NCI-H522 lung
  GI50: 23.7 µM
  TGI: > 100 µM
HS 578T breast
  GI50: 0.902 µM
  TGI: 32.8 µM
HL-60(TB) leukemia
  GI50: 0.599 µM
  TGI: 9.14 µM
ACHN renal
  GI50: 6.68 µM
  TGI: > 100 µM
SNB-75 CNS
  GI50: 0.762 µM
  TGI: > 100 µM
HOP-92 NSCLC
  GI50: 0.627 µM
  TGI: > 100 µM
DU-145 prostate
  GI50: 17.4 µM
  TGI: > 100 µM
BT-549 breast
  GI50: 0.341 µM
  TGI: > 100 µM
SN12C renal
  GI50: 0.215 µM
  TGI: > 100 µM
SR leukemia
  GI50: 0.385 µM
  TGI: 16.6 µM
UO-31 renal
  GI50: 6.38 µM
  TGI: > 100 µM
OVCAR-4 ovarian
  GI50: > 100 µM
  TGI: > 100 µM
HCT-116 colon
  GI50: 10.5 µM
  TGI: > 100 µM
HT29 colon
  GI50: 6.45 µM
  TGI: > 100 µM
U251 glioblastoma
  GI50: 39.2 µM
  TGI: > 100 µM
KM12 colon
  GI50: 23.5 µM
  TGI: > 100 µM
UACC-62 melanoma
  GI50: 0.981 µM
  TGI: 24.7 µM
OVCAR-8 ovarian
  GI50: 10.3 µM
  TGI: > 100 µM
TK-10 renal
  GI50: 3.57 µM
  TGI: > 100 µM
MDA-MB-435 melanoma
  GI50: 87 µM
  TGI: > 100 µM
CCRF-CEM leukemia
  GI50: 13.4 µM
  TGI: 57.9 µM
MDA-MB-468 breast
  GI50: 1.59 µM
  TGI: 12.7 µM
MALME-3M melanoma
  GI50: 1.13 µM
  TGI: 63.1 µM
786-0 renal
  GI50: 1.24 µM
  TGI: > 100 µM
SK-OV-3 ovarian
  GI50: 3.48 µM
  TGI: > 100 µM
OVCAR-3 ovarian
  GI50: 0.465 µM
  TGI: 18 µM
A498 renal
  GI50: 0.0447 µM
  TGI: 1.31 µM
NCI-H23 lung
  GI50: 31.8 µM
  TGI: > 100 µM
EKVX NSCLC
  GI50: 2.4 µM
  TGI: > 100 µM
SNB-19 CNS
  GI50: 68.6 µM
  TGI: > 100 µM
MDA-MB-231 breast
  GI50: 49.1 µM
  TGI: > 100 µM
SK-MEL-5 melanoma
  GI50: 11.3 µM
  TGI: > 100 µM
MOLT-4 leukemia
  GI50: 1.11 µM
  TGI: 10.8 µM
SW-620 colon
  GI50: 61.4 µM
  TGI: > 100 µM
M14 melanoma
  GI50: 20.4 µM
  TGI: > 100 µM
PC-3 prostate
  GI50: 0.261 µM
  TGI: > 100 µM
LOX IMVI melanoma
  GI50: 17 µM
  TGI: > 100 µM
RPMI-8226 leukemia
  GI50: 16.6 µM
  TGI: 51.1 µM
K-562 leukemia
  GI50: 55.1 µM
  TGI: > 100 µM
IGROV1 ovarian
  GI50: 0.392 µM
  TGI: 3.29 µM
NCI-H460 NSCLC
  GI50: 4.5 µM
  TGI: > 100 µM
HCT-15 colon
  GI50: 25.5 µM
  TGI: > 100 µM
NCI/ADR-RES ovarian
  GI50: > 100 µM
  TGI: > 100 µM
NCI-H322M lung
  GI50: 8.36 µM
  TGI: 78 µM
SF-539 CNS
  GI50: 12 µM
  TGI: > 100 µM
